{"source": "PubChem BioAssay (NCI)", "assay_in_all_cases": "NCI tumour cell line growth inhibition, 384-well format", "key": {"CCRF-CEM leukemia": {"test_system": "CCRF-CEM leukemia"}, "HL-60(TB) leukemia": {"test_system": "HL-60(TB) leukemia"}, "SK-OV-3 ovarian": {"test_system": "SK-OV-3 ovarian"}, "EKVX NSCLC": {"test_system": "EKVX NSCLC"}, "SR leukemia": {"test_system": "SR leukemia"}, "MDA-MB-468 breast": {"test_system": "MDA-MB-468 breast"}, "NCI/ADR-RES ovarian": {"test_system": "NCI/ADR-RES ovarian"}, "U251 glioblastoma": {"test_system": "U251 glioblastoma"}, "HCC-2998 colon": {"test_system": "HCC-2998 colon"}, "TK-10 renal": {"test_system": "TK-10 renal"}, "786-0 renal": {"test_system": "786-0 renal"}, "SK-MEL-2 melanoma": {"test_system": "SK-MEL-2 melanoma"}, "HS 578T breast": {"test_system": "HS 578T breast"}, "OVCAR-4 ovarian": {"test_system": "OVCAR-4 ovarian"}, "PC-3 prostate": {"test_system": "PC-3 prostate"}, "OVCAR-3 ovarian": {"test_system": "OVCAR-3 ovarian"}, "SNB-19 CNS": {"test_system": "SNB-19 CNS"}, "COLO 205 colon": {"test_system": "COLO 205 colon"}, "SK-MEL-5 melanoma": {"test_system": "SK-MEL-5 melanoma"}, "A498 renal": {"test_system": "A498 renal"}, "SN12C renal": {"test_system": "SN12C renal"}, "NCI-H460 NSCLC": {"test_system": "NCI-H460 NSCLC"}, "KM12 colon": {"test_system": "KM12 colon"}, "HOP-92 NSCLC": {"test_system": "HOP-92 NSCLC"}, "OVCAR-5 ovarian": {"test_system": "OVCAR-5 ovarian"}}, "note": "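GI50 = concentration required for 50% inhibition of growth. TGI is the concentration that stops growth completely.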", "data": [{"molecule": "COc1cnccc1Nc1nc(-c2nn(Cc3c(F)cc(OCCO)cc3F)c3ccccc23)ncc1OC", "values": [{"measurement": "GI50", "setting": "CCRF-CEM leukemia", "result": 395, "unit": "nM"}, {"measurement": "TGI", "setting": "CCRF-CEM leukemia", "result": 1740, "unit": "nM"}, {"measurement": "GI50", "setting": "HL-60(TB) leukemia", "result": 838, "unit": "nM"}, {"measurement": "TGI", "setting": "HL-60(TB) leukemia", "result": 2160, "unit": "nM"}, {"measurement": "GI50", "setting": "SK-OV-3 ovarian", "result": 1750, "unit": "nM"}, {"measurement": "TGI", "setting": "SK-OV-3 ovarian", "result": 3930, "unit": "nM"}, {"measurement": "GI50", "setting": "EKVX NSCLC", "result": 1540, "unit": "nM"}, {"measurement": "TGI", "setting": "EKVX NSCLC", "result": 3160, "unit": "nM"}, {"measurement": "GI50", "setting": "SR leukemia", "result": 261, "unit": "nM"}, {"measurement": "TGI", "setting": "SR leukemia", "result": 1250, "unit": "nM"}, {"measurement": "GI50", "setting": "MDA-MB-468 breast", "result": 927, "unit": "nM"}, {"measurement": "TGI", "setting": "MDA-MB-468 breast", "result": 2130, "unit": "nM"}, {"measurement": "GI50", "setting": "NCI/ADR-RES ovarian", "result": 1870, "unit": "nM"}, {"measurement": "TGI", "setting": "NCI/ADR-RES ovarian", "result": 3900, "unit": "nM"}, {"measurement": "GI50", "setting": "U251 glioblastoma", "result": 1440, "unit": "nM"}, {"measurement": "TGI", "setting": "U251 glioblastoma", "result": 2780, "unit": "nM"}, {"measurement": "GI50", "setting": "HCC-2998 colon", "result": 1760, "unit": "nM"}, {"measurement": "TGI", "setting": "HCC-2998 colon", "result": 4470, "unit": "nM"}, {"measurement": "GI50", "setting": "TK-10 renal", "result": 2040, "unit": "nM"}, {"measurement": "TGI", "setting": "TK-10 renal", "result": 4140, "unit": "nM"}, {"measurement": "GI50", "setting": "786-0 renal", "result": 1530, "unit": "nM"}, {"measurement": "TGI", "setting": "786-0 renal", "result": 2890, "unit": "nM"}, {"measurement": "GI50", "setting": "SK-MEL-2 melanoma", "result": 1540, "unit": "nM"}, {"measurement": "TGI", "setting": "SK-MEL-2 melanoma", "result": 2880, "unit": "nM"}, {"measurement": "GI50", "setting": "HS 578T breast", "result": 1750, "unit": "nM"}, {"measurement": "TGI", "setting": "HS 578T breast", "result": 3890, "unit": "nM"}, {"measurement": "GI50", "setting": "OVCAR-4 ovarian", "result": 1640, "unit": "nM"}, {"measurement": "TGI", "setting": "OVCAR-4 ovarian", "result": 3030, "unit": "nM"}, {"measurement": "GI50", "setting": "PC-3 prostate", "result": 1870, "unit": "nM"}, {"measurement": "TGI", "setting": "PC-3 prostate", "result": 3360, "unit": "nM"}, {"measurement": "GI50", "setting": "OVCAR-3 ovarian", "result": 1610, "unit": "nM"}, {"measurement": "TGI", "setting": "OVCAR-3 ovarian", "result": 3100, "unit": "nM"}, {"measurement": "GI50", "setting": "SNB-19 CNS", "result": 1600, "unit": "nM"}, {"measurement": "TGI", "setting": "SNB-19 CNS", "result": 3080, "unit": "nM"}, {"measurement": "GI50", "setting": "COLO 205 colon", "result": 2270, "unit": "nM"}, {"measurement": "TGI", "setting": "COLO 205 colon", "result": "> 33300", "unit": "nM"}, {"measurement": "GI50", "setting": "SK-MEL-5 melanoma", "result": 1510, "unit": "nM"}, {"measurement": "TGI", "setting": "SK-MEL-5 melanoma", "result": 2850, "unit": "nM"}, {"measurement": "GI50", "setting": "A498 renal", "result": 1190, "unit": "nM"}, {"measurement": "TGI", "setting": "A498 renal", "result": 2430, "unit": "nM"}, {"measurement": "GI50", "setting": "SN12C renal", "result": 1310, "unit": "nM"}, {"measurement": "TGI", "setting": "SN12C renal", "result": 2650, "unit": "nM"}, {"measurement": "GI50", "setting": "NCI-H460 NSCLC", "result": 1060, "unit": "nM"}, {"measurement": "TGI", "setting": "NCI-H460 NSCLC", "result": 2280, "unit": "nM"}, {"measurement": "GI50", "setting": "KM12 colon", "result": 1270, "unit": "nM"}, {"measurement": "TGI", "setting": "KM12 colon", "result": 3130, "unit": "nM"}, {"measurement": "GI50", "setting": "HOP-92 NSCLC", "result": 902, "unit": "nM"}, {"measurement": "TGI", "setting": "HOP-92 NSCLC", "result": 2190, "unit": "nM"}, {"measurement": "GI50", "setting": "OVCAR-5 ovarian", "result": 2860, "unit": "nM"}]}]}
